Where two headings read alike, the source gives them in different places.
Target: T1, Rhesus PDE2A3 (Macaca mulatta, UniProt B3VTJ2)
T1 construct: made in house; host or cells: AD293 cells, transient transfection; supernatant of sonicated lysate
T1 sequence (B3VTJ2 1-941): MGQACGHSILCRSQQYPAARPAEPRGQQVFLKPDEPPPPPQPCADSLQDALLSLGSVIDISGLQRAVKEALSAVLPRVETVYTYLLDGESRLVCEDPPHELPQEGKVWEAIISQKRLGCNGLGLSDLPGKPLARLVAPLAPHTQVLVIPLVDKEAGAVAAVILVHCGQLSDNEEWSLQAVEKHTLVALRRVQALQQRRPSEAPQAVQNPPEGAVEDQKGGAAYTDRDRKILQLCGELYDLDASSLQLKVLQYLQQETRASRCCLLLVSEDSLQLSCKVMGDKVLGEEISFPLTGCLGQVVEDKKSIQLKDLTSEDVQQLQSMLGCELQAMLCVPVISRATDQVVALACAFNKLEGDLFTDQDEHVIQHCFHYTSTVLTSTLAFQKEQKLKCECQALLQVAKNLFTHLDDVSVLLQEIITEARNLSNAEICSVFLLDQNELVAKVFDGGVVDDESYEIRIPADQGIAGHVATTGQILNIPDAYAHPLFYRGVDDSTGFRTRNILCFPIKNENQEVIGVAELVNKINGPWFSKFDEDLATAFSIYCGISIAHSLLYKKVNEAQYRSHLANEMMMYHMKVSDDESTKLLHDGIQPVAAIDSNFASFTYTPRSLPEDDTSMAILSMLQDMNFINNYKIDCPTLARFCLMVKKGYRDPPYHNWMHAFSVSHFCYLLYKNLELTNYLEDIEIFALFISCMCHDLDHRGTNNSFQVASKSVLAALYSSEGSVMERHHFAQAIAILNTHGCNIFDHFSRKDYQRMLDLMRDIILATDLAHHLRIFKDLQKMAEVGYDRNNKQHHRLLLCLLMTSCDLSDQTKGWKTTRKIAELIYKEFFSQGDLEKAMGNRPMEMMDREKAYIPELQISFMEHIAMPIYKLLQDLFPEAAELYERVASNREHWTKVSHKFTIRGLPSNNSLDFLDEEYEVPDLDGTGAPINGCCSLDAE
Assay: PDE2 fluorescence polarization (IMAP FP) inhibition assay, rhesus PDE2A3
Assay type: biochemical, rhesus macaque
How it was run: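 Enzyme source was the lysate supernatant of AD293 cells transiently expressing rhesus PDE2A3, diluted to give 20% conversion of 50 nM FAM-cAMP, with 1 µM cGMP as activator. Buffer was 10 mM Tris pH 7.2, 10 mM MgCl2, 1 mM DTT.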

[1] = Lab B, read-out: Rhesus PDE2 Ki (nM) Lab B
[2] = Lab A, read-out: Rhesus PDE2 Ki (nM) Lab A

| Compound | Ki [1] [nM] | Ki [2] [nM] |
| --- | --- | --- |
| Cc1nc2c(c(CO)nn2C(c2ccc(OC(F)(F)F)cc2)C2CC2)c(=O)[nH]1 (single isomer, unassigned) [Example 94, (R)- or (S)-1-(Cyclopropyl(4-(trifluoromethoxy)phenyl)methyl)-3-(hydroxymethyl)-6-methyl-1H-pyrazolo[3,4-d]pyrimidin-4(5H)-one] | 18 |  |
| Cc1nc2c(c(CF)nn2C(C)c2ccc(OC(F)(F)F)cc2)c(=O)[nH]1 (single isomer, unassigned) [Example 207, (S)- or (R)-3-(Fluoromethyl)-6-methyl-1-(1-(4-(trifluoromethoxy)phenyl)ethyl)-1H-pyrazolo[3,4-d]pyrimidin-4(5H)-one] | 0.84 | 0.46 |
| Cc1nc2c(c(CO)nn2C(C)c2ccc(C(F)(F)F)cc2)c(=O)[nH]1 (single isomer, unassigned) [Example 26, (R)- or (S)-3-(Hydroxymethyl)-6-methyl-1-{1-[4-(trifluoromethyl)phenyl]ethyl}-1,5-dihydro-4H-pyrazolo[3,4-d]pyrimidin-4-one] | 456 | 216 |
| Cc1ccc(C(C)n2nc(CO)c3c(=O)[nH]c(C)nc32)cc1 (centres unmarked) [Example 2, 3-(Hydroxymethyl)-6-methyl-1-(1-p-tolylethyl)-1H-pyrazolo[3,4-d]pyrimidin-4(5H)-one] | 30 | 26 |
| COCc1nc2c(c(C)nn2C(C)c2ccc(C(F)(F)F)cc2)c(=O)[nH]1 (centres unmarked) [Example 48, 6-(Methoxymethyl)-3-methyl-1-{1-[4-(trifluoromethyl)phenyl]ethyl}-1,5-dihydro-4H-pyrazolo[3,4-d]pyrimidin-4-one] |  | 36 |
| Cc1nn(C(C)c2ccc(C(F)(F)F)cc2)c2nc(Cc3cccc(O)c3)[nH]c(=O)c12 (centres unmarked) [Example 30, 6-(3-Hydroxybenzyl)-3-methyl-1-(1-(4-(trifluoromethyl)phenyl)ethyl)-1H-pyrazolo[3,4-d]pyrimidin-4(5H)-one] | 11 | 6.6 |
| Cc1nc2c(c(CF)nn2C(c2ccc(C(F)(F)F)cc2)C2CC2)c(=O)[nH]1 (centres unmarked) [Example 231, 1-(cyclopropyl(4-(trifluoromethyl)phenyl)methyl)-3-(fluoromethyl)-6-methyl-1H-pyrazolo[3,4-d]pyrimidin-4(5H)-one] | 1.2 | 0.87 |
| Cc1nc2c(c(C)nn2C(C)c2ccc(C(F)(F)F)cc2)c(=O)[nH]1 (single isomer, unassigned) [Example 37] |  | 23 |
| Cc1nc2c(c(CF)nn2C(C)c2ccc(OC(F)(F)F)c(F)c2)c(=O)[nH]1 (single isomer, unassigned) [Example 216, (R)- or (S)-1-(1-(3-Fluoro-4-(trifluoromethoxy)phenyl)ethyl)-3-(fluoromethyl)-6-methyl-1H-pyrazolo[3,4-d]pyrimidin-4(5H)-one] | 41 | 19 |
| Cc1nc2c(c(C(C)(C)O)nn2C(C)c2ccc(C(F)(F)F)cc2)c(=O)[nH]1 (centres unmarked) [Example 326, 3-(1-Hydroxy-1-methylethyl)-6-methyl-1-{1-[4-(trifluoromethyl)phenyl]ethyl}-1,5-dihydro-4H-pyrazolo[3,4-d]pyrimidin-4-one] |  | 134 |
| Cc1nn(C(C)c2ccc(C(F)(F)F)cc2)c2nc(C3CC3)[nH]c(=O)c12 (centres unmarked) [Example 42, 6-Cyclopropyl-3-methyl-1-{1-[4-(trifluoromethyl)phenyl]ethyl}-1,5-dihydro-4H-pyrazolo[3,4-d]pyrimidin-4-one] |  | 58 |
| COc1ccc(Cc2nc3c(c(C)nn3C(C)c3ccc(C(F)(F)F)cc3)c(=O)[nH]2)cc1 (centres unmarked) [Example 46, 6-(4-Methoxybenzyl)-3-methyl-1-{1-[4-(trifluoromethyl)phenyl]ethyl}-1,5-dihydro-4H-pyrazolo[3,4-d]pyrimidin-4-one] |  | 7.1 |
| Cc1nc2c(c(CF)nn2C(c2ccc(C(F)(F)F)cc2)C(C)C)c(=O)[nH]1 (single isomer, unassigned) [Example 213, (S)- or (R)-3-(Fluoromethyl)-6-methyl-1-(2-methyl-1-(4-(trifluoromethyl)phenyl)propyl)-1H-pyrazolo[3,4-d]pyrimidin-4(5H)-one] | 0.15 |  |
| COc1ccc(Cc2nc3c(c(C)nn3C(C)c3ccc(C(F)(F)F)cc3)c(=O)[nH]2)cc1OC (centres unmarked) [Example 44, 6-(3,4-Dimethoxybenzyl)-3-methyl-1-{1-[4-(trifluoromethyl)phenyl]ethyl}-1,5-dihydro-4H-pyrazolo[3,4-d]pyrimidin-4-one] |  | 4.8 |
| Cc1nc2c(c(CO)nn2C(c2ccc(C(F)(F)F)c(F)c2)C(C)(C)C)c(=O)[nH]1 (single isomer, unassigned) [Example 129, (S)- or (R)-1-(1-(3-Fluoro-4-(trifluoromethyl)phenyl)-2,2-dimethylpropyl)-3-(hydroxyl-methyl)-6-methyl-1H-pyrazolo-[3,4-d]pyrimidin-4(5H)-one] | 6.9 |  |
| COc1cccc(-c2nc3c(c(C)nn3C(C)c3ccc(C(F)(F)F)cc3)c(=O)[nH]2)c1 (centres unmarked) [Example 47, 6-(3-Methoxyphenyl)-3-methyl-1-{1-[4-(trifluoromethyl)phenyl]ethyl}-1,5-dihydro-4H-pyrazolo[3,4-d]pyrimidin-4-one] |  | 18 |
| Cc1nc2c(c(CO)nn2C(C)c2ccc(OC(F)(F)F)c(F)c2)c(=O)[nH]1 (single isomer, unassigned) [Example 10, (R)- or (S)-1-(1-(3-Fluoro-4-(trifluoromethoxy)phenyl)ethyl)-3-(hydroxymethyl)-6-methyl-1H-pyrazolo[3,4-d]pyrimidin-4(5H)-one] | 103 | 39 |
| Cc1nc2c(c(CF)nn2C(c2ccc(C(F)(F)F)cc2)C(C)C)c(=O)[nH]1 (single isomer, unassigned) [Example 212, (R)- or (S)-3-(Fluoromethyl)-6-methyl-1-(2-methyl-1-(4-(trifluoromethyl)phenyl)propyl)-1H-pyrazolo[3,4-d]pyrimidin-4(5H)-one] | 54 |  |
| Cc1nc2c(c(CO)nn2C(C)c2ccc(OC(F)(F)F)c(F)c2)c(=O)[nH]1 (single isomer, unassigned) [Example 11, (S)- or (R)-1-(1-(3-Fluoro-4-(trifluoromethoxy)phenyl)ethyl)-3-(hydroxymethyl)-6-methyl-1H-pyrazolo[3,4-d]pyrimidin-4(5H)-one] | 2 | 0.85 |
| CCC(CCCc1ccccc1)n1nc(C)c2c(=O)[nH]c(C)nc21 (centres unmarked) [Example 338, 1-(1-ethyl-4-phenylbutyl)-3,6-dimethyl-1,5-dihydro-4H-pyrazolo[3,4-d]pyrimidin-4-one] |  | 113 |
| Cc1nc2c(c(CF)nn2C(c2ccc(C(F)(F)F)cc2)C2(C)CC2)c(=O)[nH]1 (single isomer, unassigned) [Example 209] | 1 |  |
| Cc1nc2c(c(CO)nn2[C@@H](c2ccc(C(C)(C)C)cc2)C(C)C)c(=O)[nH]1 [Example 160, (R)-1-(1-(4-tert-Butylphenyl)-2-methylpropyl)-3-(hydroxymethyl)-6-methyl-1H-pyrazolo[3,4-d]pyrimidin-4(5H)-one] | 0.3 |  |
| Cc1nc(-c2nc3c(c(C)nn3C(C)c3ccc(C(F)(F)F)cc3)c(=O)[nH]2)c(C)o1 (centres unmarked) [Example 54, 6-(2,5-Dimethyl-1,3-oxazol-4-yl)-3-methyl-1-{1-[4-(trifluoromethyl)phenyl]ethyl}-1,5-dihydro-4H-pyrazolo[3,4-d]pyrimidin-4-one] |  | 32 |
| Cc1nc2c(c(CF)nn2C(C)c2ccc(OC(F)(F)F)cc2)c(=O)[nH]1 (single isomer, unassigned) [Example 206, (R)- or (S)-3-(Fluoromethyl)-6-methyl-1-(1-(4-(trifluoro-methoxy-)phenyl)ethyl)-1H-pyrazolo[3,4-d]pyrimidin-4(5H)-one] | 123 | 41 |
| Cc1nc2c(c(CO)nn2C(C)c2ccc(OC(F)(F)F)cc2)c(=O)[nH]1 (centres unmarked) [Example 4] | 7.1 | 3.8 |
| Cc1nc2c(c(CO)nn2C(C)c2ccc(C3CC3)cc2)c(=O)[nH]1 (centres unmarked) [Example 3, 1-(1-(4-Cyclopropylphenl)ethyl)-3-(hydroxymethyl)-6-methyl-1H-pyrazolo[3,4-d]pyrimidin-4(5H)-one] | 5.6 | 1.8 |
| Cc1nc2c(c(CO)nn2C(c2ccc(OC(F)(F)F)c(F)c2)C(C)C)c(=O)[nH]1 (single isomer, unassigned) [Example 126, (R)- or (S)-1-(1-(3-Fluoro-4-(trifluoromethoxy)phenyl)-2-methylpropyl)-3-(hydroxyl-methyl)-6-methyl-1H-pyrazolo-[3,4-d]pyrimidin-4(5H)-one] | 6 |  |
